Experimental data from US12485117B2, “Compositions and methods for activating signaling through the CB1 cannabinoid receptor for treating and preventing diseases and disorders characterized by abnormal cellular accumulation of sphingolipids such as sphingomyelin” (Wylder Nation Foundation, priority 2018, dated 2025).

What was measured:
ASMko cultured neurons [1] = assay: TUNEL assay of neuronal death in ASMko cultured neurons; assay type: cell-based, mouse; settings: 50 μM for 1 hour
Experimental: FIG. 10B is a graph showing mean±SEM percentage of apoptotic cells, measured by TUNEL assay, with respect to the positive control in which the cells were treated with H202.
The percentage of dying neurons showing DNA fragmentation was 5-8% in the treated ASMko cultures similar to the non-treated ones.

ASMko cultured neurons [2] = assay: MAP2 immunofluorescence of dendrites in ASMko cultured neurons; assay type: cell-based, mouse; settings: 50 μM for 1 hour
wt and ASMko mice [3] = assay: Y maze test (hippocampal dependent memory); assay type: in vivo, mouse; settings: 0.3 mg/kg every three days
Experimental: (§1) FIGS. 13A-13C show the effect of PF-04457845 treatment on various behavioral functions. […] (n=14; **p<0.01, *p<0.05).
(§2) Treatment started at 7 weeks of age and continued for 8 weeks. PF-04457845 was dissolved in 0.9% NaCl and delivered through oral gavage at a dose of 0.3 mg/kg every three days. We chose this dose based on the studies published by Ahn et al., (J Pharm Exp Ther 2011). Control groups received same volume of 0.9% NaCl without PF-04457845.
Hippocampal dependent memory was monitored by the Y maze test (FIG. 13A). During the first training trial (8 min) the mice were only allowed to explore two arms (the initial arm and one other arm), maintaining the third arm (novel arm) closed. After 1 hour, the mice were placed back in the same starting arm with free access to all three arms for 5 min.
The time spent in the novel arm was counted and expressed as a percentage of the total exploration time. Non-treated ASMko mice spent less time in the novel arm than wt mice, indicative of impaired memory.

wt and ASMko mice [4] = assay: Elevated Plus Maze test; assay type: in vivo, mouse; settings: 0.3 mg/kg every three days
Experimental: as §1, §2
Mood alterations were monitored by the Tail Suspension Test (FIG. 13B) and by the Elevated Plus Maze test (FIG. 13C) that give an idea of depressive state and anxiety, respectively. […] PF-04457845 treatment had no effect in the behavior of wt mice.

Purkinje cells = assay: Purkinje cell death by Calbindin1 staining in the cerebellum; assay type: in vivo, mouse; settings: 0.3 mg/kg every three days
Experimental: FIGS. 15A-15D show representative images of Purkinje cells from wildtype and ASMko mice treated or not treated with PF-04457845.
as §2
Purkinje cell death was analyzed by Calbindin1 staining in the cerebellum of wt and ASMko treated or not with PF-04457845 (FIG. 15A). Loss of Purkinje cells was prominent in non-treated ASMko mice compared to wt. […] PF-04457845 treatment had no effect on Purkinje cell survival in wt mice. We also analyzed Lysosomal size by staining Purkinje cells of the cerebellum for Lamp1 expression in samples from wt and ASMko mice treated or not treated with PF-04457845 (FIG. 15B). Lysosomal size was increased by an average 45% in the non-treated ASMko compared to wt mice consistent with sphingomyelin accumulation in these organelles. This alteration was prevented to a significant extent (35%) in the ASMko mice treated with PF.

astrocytes = assay: Astrocytes by GFAP immunofluorescence; assay type: in vivo, mouse; settings: 0.3 mg/kg every three days
Experimental: Representative images of astrocytes stained for GFAP (red) in the cerebellum, hippocampus and cortex of wt and ASMko mice treated or not with PF-04457845. […] Graphs show mean±SEM GFAP intensity in arbitrary units (n=7, **p<0.01, *p<0.05).
as §2
Brain inflammation was determined by analysis of glial cells in the cerebellum, hippocampus and cortex. The number and morphology of microglia was analyzed by immunofluorescence staining with the marker iba-1 (FIG. 16). […] PF-04457845 treatment had no effect in microglia of wt mice. The amount of astrocytes was analyzed by immunofluorescence with the marker GFAP (FIG. 17). […] PF-04457845 treatment had no effect in astrocytes of wt mice (FIG. 17).

wt and ASMko mice [5] = assay: Survival analysis (life span); assay type: in vivo, mouse
Experimental: as §2
Behavioral analyses were performed in the last 2 weeks of treatment while still administering the drug. Then, half of the mice were sacrificed for biochemical and histological analysis and the other half continued receiving the treatment to monitor life span.
Seven mice per condition remained under treatment to monitor life span. While the mean survival of non-treated ASMko mice was 29 weeks, PF-04457845 treatment extended ASMko mice mean life span to 38 weeks (FIG. 19).

wt or ASMko mice = assay: Acute toxicity: in-life observations for 48 hours after a single oral dose; assay type: in vivo, mouse; settings: 48 hours after single oral dose, any of the doses (0.1, 1, 5 mg/kg)
Experimental: To that end, a toxicity assessment of oral PF-04457845 treatment in AMSko mice was performed to determine the toxicity in liver and brain of single doses of PF-04457845 administered by oral gavage at different concentration.
We divided wt and ASMko mice of 4.5 months of age in six experimental groups: ASMko control (n=3), ASMko low dose (n=3), ASMko intermediate dose (n=3), ASMko high dose (n=3), wt control (n=3), wt high dose (n=3). PF-04457845, provided as powder, was dissolved in 0.9% NaCl and administered to mice through oral gavage. Vehicle groups received same volume of 0.9% NaCl.
Doses have been calculated taking into account that used in the study conducted in healthy humans (Li et al., Br J Clin Pharmacol 2011, 73:706-716). […] Estimating an average weight of 60 kg for an adult human the daily dose equals to 0.0083 mg/kg. This dose was very similar to that used in our first 8 week-long treatment with PF-04457845 in ASMko mice, which according to the formulas to calculate equivalence between humans and mice (Nair and Jacob J Basic Clin Pharma 2016, 7:27-31) corresponded to a daily HED dose of 0.0072 mg/kg. For this toxicity study we agreed to take into account the human dose: 0.0083 mg/kg. Formula conversion to mouse dose: HED (mg/kg)=Mouse dose (mg/kg)×mouseKm/Human Km).

[6] = cited from earlier work
[7] = cited from earlier work; remark: listed apart in the source

O=C(Nc1cccnn1)N1CCC(=Cc2cccc(Oc3ccc(C(F)(F)F)cn3)c2)CC1 [PF-04457845]
neuronal death as assessed by TUNEL (ASMko cultured neurons [1]): did not induce neuronal death | morphology, length, appearance of dendrites (MAP2) (ASMko cultured neurons [2]): did not alter the morphology, length or homogeneous appearance of dendrites | time in the novel arm of Y maze (memory) (wt and ASMko mice [3]; ASMko mice): restored memory function | time in the novel arm of Y maze, treated versus non-treated (wt and ASMko mice [3]; wt mice): No differences | behavior in Elevated Plus Maze test (anxiety) (wt and ASMko mice [4]; ASMko mice): normalized | behavior in Elevated Plus Maze test (wt and ASMko mice [4]; wt mice): no effect | Purkinje cell death (Calbindin1) (Purkinje cells; ASMko mice, cerebellum): prevented cell death in a significant percentage of cells | Purkinje cell survival (Purkinje cells; wt mice): no effect | GFAP intensity in cerebellum, hippocampus and cortex (astrocytes; ASMko mice): reduced GFAP intensity in all areas but the effect was significant only in the cerebellum | astrocytes (GFAP) (astrocytes; wt mice): no effect | lifespan extended (wt and ASMko mice [5]; ASMko mice): 31% | mean life span (wt and ASMko mice [5]; ASMko mice, continued treatment 0.3 mg/kg every three days): 38 weeks | survival (wt and ASMko mice [5]; wildtype mice): did not affect | adverse effects (abnormal behavior, weight loss, motor anomalies, skin alterations) (wt or ASMko mice): No evident adverse effects | doses that seem to be safe in rodents ([6]; Ahn et al., 2011): up to 10 mg/kg | selectivity ([6]; Ahn et al., J Pharm Exp Ther 2011): exceptional selectivity | duration of action in vivo ([6]; rodents, Ahn et al. 2011): long duration of action | pharmacokinetic properties ([6]; rodents, Ahn et al. 2011): optimal pharmacokinetic properties | tolerability of much higher doses in healthy humans ([7]; Li et al., 2011): well tolerated | safety in healthy humans ([7]; Ling et al., BJCP 2011): safety in healthy humans has been already demonstrated | dose sufficient, well tolerated and providing maximal effects on FAAH activity and fatty acid amide elevation ([7]; once daily, healthy humans, Li et al., Br J Clin Pharmacol 2011): 0.5 mg
